Test in all cases: NCI-60 cell line screen, 48 h
The subject of assay [1] is RXF 393 renal.
Assay [2] concerns SNB-19 CNS.
Assay [3] concerns BT-549 breast.
Assay [4] deals with T-47D breast.
Assay [5] concerns KM12 colon.
The subject of assay [6] is SK-MEL-2 melanoma.
Assay [7] concerns HCT-116 colon.
Assay [8] has as its system SF-539 CNS.
Assay [9] relates to OVCAR-5 ovarian.
In assay [10] the test system is SF-295 CNS.
In assay [11] the test system is MDA-MB-435.

Here are results for 26 compounds from PubChem BioAssay (NCI).

Where “and” joins values, the source holds several entries; their conditions need not be identical. Equal entries are not always repeated.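 The compound was tested at five concentrations on cells cultured in 96-well plates, with a 48-hour exposure period. The concentration for 50% growth inhibition is given as GI50. TGI: concentration producing complete growth inhibition.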

`COc1cc2ncnc(Nc3cccc(Br)c3)c2cc1OC`: the TGI in assay [1] is 53 µM; in assay [2], > 77.4 µM; in assay [3] it was > 50.8 µM; in assay [4], 48 µM; in assay [5], 16.1 µM; in assay [6], 12.9 µM. Besides, the TGI is 39.3 µM in assay [7]; 17 µM in [8]; 25 µM in assay [9]; 14.3 µM in assay [10]; 49.7 µM in assay [11].
With `COP(=O)(OC)[C@@](O)(c1ccccc1)[C@@H](O)[C@H](O)c1ccccc1`, the TGI in assay [1], in [2], in assay [3], in [4], in [5] and in assay [6] was > 100 µM each time. Also, the TGI in assay [7], in assay [8], in assay [9], in assay [10] and in [11] was > 100 µM each time.
For the compound `COc1ccc(C2c3cc4c(cc3OC(N3CCOCC3)C2C)OCO4)cc1OC` (stereo not given), the TGI in assay [1] was 25.4 µM; in [2] it was 77.6 µM; in assay [3] it was > 100 µM; in assay [4], > 100 µM; in [5] it was > 100 µM; in assay [6], 61.8 µM. Also, the TGI is 50.8 µM in assay [7]; 22.1 µM in assay [8]; > 100 µM in [9]; 32.8 µM in assay [10]; 6.25 µM in assay [11].
For the compound `CN(C)CCNc1c(O)c2c(c(O)c1Cl)C(=O)C=CC2=O`, the TGI in assay [1] came out at 15.4 µM; in assay [2], 3.76 µM; in assay [3], 3.17 µM; in [4], 4.38 µM; in assay [5], 3.39 µM; in assay [6], 3.95 µM. Further, the TGI stood at 3.32 µM in [7]; 3.28 µM in [8]; 3.12 µM in [9]; 4.05 µM in [10]; 3.68 µM in [11].
As for `COC(=O)C12CCCN1CCC2`, the TGI in [1], in assay [2], in assay [3], in assay [4], in [5] and in [6] was > 100 µM in each case. For the same compound, the TGI in assay [7], in assay [9], in assay [10] and in assay [11] was > 100 µM in each case.
In the case of `O=C1CC(Nc2ccccc2)c2c(Cl)sc(Cl)c21` (stereo not given), the TGI in assay [2] is 20.5 µM; in assay [3], 4.36 µM; in assay [4], > 20 µM; in [5], 1.94 µM; in [6] it was 4.37 µM; in assay [7], 2.5 µM. Besides, the TGI in assay [8] is 2.24 µM; in assay [9], 6.23 µM; in assay [10], 19.5 µM; in [11], 3.17 µM.
Regarding `O=C(CSc1nc2ccccc2c(=O)n1-c1ccccc1)N=Nc1c(O)[nH]c2ccc(Br)cc12`, the TGI in assay [1] was 7.68 µM; in assay [2], 27.2 µM; in assay [3], > 59.6 µM; in assay [4], 28.6 µM; in [5], 14 µM; in assay [6] it was 47.1 µM. The TGI in [8] was determined as 6.13 µM; in assay [9], 8.53 µM; in assay [10], 8.93 µM; in assay [11] it was 34 µM.
As for `CC(C)(C)c1ccc(O)c(C(O)c2ccccn2)c1` (stereo not given), the TGI in assay [1] was > 100 µM; in [2], > 100 µM; in assay [3], > 100 µM; in assay [4], 80.9 µM; in assay [5], > 100 µM; in [7] it was > 100 µM. The TGI in [8] is > 100 µM; in assay [9] it was 89.6 µM; in [10], > 100 µM; in assay [11], > 100 µM.
On to `COc1cc(OC)c(-n2[nH]c(=O)n(C)c2=O)c(OC)c1`, for which the TGI in assay [1], in assay [2], in [3], in assay [4], in assay [5] and in assay [6] was > 100 µM throughout. Besides, the TGI in assay [7], in assay [8], in [9] and in assay [11] was > 100 µM in each case.
In the case of `Cc1ccc2[nH]c3c(c2c1)C1CCC(C(C)(C)C)CC1C1C(=O)N(c2ccc(Oc4ccccc4)cc2)C(=O)C31` (stereo not given), the TGI in [1] is 29.1 µM; in assay [2], > 71.9 µM; in assay [3] it was 64.1 µM; in assay [4], > 68.2 µM; in assay [5] it was > 100 µM; in assay [6], > 100 µM. Also, the TGI in [7] is > 100 µM; in assay [9], > 81 µM; in [10] it was > 100 µM; in assay [11], > 100 µM.
For the compound `CC(=O)Oc1ccc2c(c1)O/C(=C\c1ccc(N(C)C)cc1)C2=O`, the TGI in assay [1], in [2], in [3], in assay [4], in [5] and in [7] was > 100 µM each time. Further, the TGI in assay [8] and in [11] was > 100 µM in each case.
As for `CC(C)(C)OC(=O)C1C(=O)NC(=O)CC1C(OCc1ccccc1)C(OCc1ccccc1)C(COCc1ccccc1)OCc1ccccc1` (stereo not given), the GI50 in assay [1] was 33.2 µM and 14.4 µM; in assay [3], > 100 µM and 31.7 µM; in [5] it was > 100 µM and 24.5 µM; in assay [7], > 100 µM and 48.1 µM; in assay [11], > 100 µM and 28.9 µM. The TGI in assay [1] is > 100 µM; in assay [2], > 100 µM; in assay [3], > 100 µM; in assay [4], 14.6 µM; in assay [5], > 100 µM; in assay [7], > 100 µM. The TGI in assay [8], in assay [9], in [10] and in [11] was > 100 µM throughout.
Consider `c1ccc(CCCN2C3CCC2CN(CCOC(c2ccccc2)c2ccccc2)C3)cc1`, for which the TGI in assay [2] turned out to be 28.3 µM; in assay [3], 24.9 µM; in assay [4] it was 13.9 µM; in assay [5], 24.2 µM; in assay [6], 22.9 µM; in assay [7], 19.8 µM. Also, the TGI in assay [8] is 22.4 µM; in assay [9] it was 25.8 µM; in [10], 26.9 µM; in assay [11], 29 µM.
For `CCOC(=O)c1ccc(-c2onc(C)c2Br)[nH]1`, the TGI is 96.1 µM in [1]; > 100 µM in assay [2]; > 100 µM in [3]; > 100 µM in assay [4]; > 100 µM in assay [5]; > 100 µM in [6]. The TGI in assay [7], in assay [9], in assay [10] and in assay [11] was > 100 µM in each case.
As to `C[C@]12CC[C@H]3[C@@H](CC=C4C[C@@H](N5CCCC5)CC[C@@]43C)[C@@H]1C/C(=C\c1ccc([N+](=O)[O-])cc1)[C@@H]2O`, the TGI came to 57.8 µM in assay [1]; 59.2 µM in [2]; 26.7 µM in assay [3]; 46.9 µM in assay [4]; 33.2 µM in assay [5]; 29.8 µM in assay [7]. Besides, the TGI in [8] is 32.4 µM; in assay [10], 96.7 µM; in assay [11], 31 µM.
For the compound `O=[N+]([O-])C(/C(Cl)=C(/Cl)N1CCOCC1)=C1\Nc2ccccc2O1`, the TGI in [2], in [3], in assay [4], in assay [5], in assay [6] and in assay [7] was > 100 µM in each case. For the same compound, the TGI in assay [8], in assay [9], in assay [10] and in assay [11] was > 100 µM throughout.
Regarding `COc1ccc(-c2nc(-c3nc4cc(Cl)c(Cl)cc4[nH]3)c3ccccn23)cc1`, the GI50 was 1.76 µM in assay [1]; 2.64 µM in assay [2]; 3.08 µM in [3]; 4.06 µM in assay [4]; > 100 µM in assay [5]; > 100 µM in [9]. Moreover, the GI50 in assay [11] is 5.77 µM. Further, the TGI in [1] is 4.26 µM; in [2] it was > 100 µM; in assay [3], 9.48 µM; in [4] it was > 100 µM; in assay [5], > 100 µM; in assay [9], > 100 µM. The TGI in assay [11] is > 100 µM.
With `CN(C(=O)Cc1cc(Cl)c(Cl)cc1NC(=O)CCCN)[C@H]1CCCC[C@@H]1N1CCCC1`, the TGI is 48.7 µM in [1]; 45.4 µM in assay [2]; > 100 µM in assay [3]; > 100 µM in assay [4]; 36.7 µM in assay [5]; 40.5 µM in [6]. Besides, the TGI in [7] is > 100 µM; in [9], > 100 µM; in assay [10], > 100 µM; in assay [11] it was 31.6 µM.
Consider `Cc1ccc(S(=O)(=O)N(CC(O)COc2ccccc2)c2c(F)c(F)c(F)c(F)c2F)cc1` (stereo not given), for which the TGI is 43.3 µM in [2]; 28.7 µM in [3]; 52.4 µM in assay [4]; > 100 µM in [5]; 30 µM in [6]; 44 µM in [7]. In addition, the TGI in assay [8] came to 34.4 µM; in [9], 34.1 µM; in assay [10], 37.4 µM; in assay [11], 34.5 µM.
Take `CCOC(=O)CCCN`: the TGI in [1], in assay [2], in assay [3], in assay [4], in [5] and in assay [6] was > 100 µM each time. The TGI in assay [7], in assay [9], in [10] and in assay [11] was > 100 µM each time.
On to `O=c1[nH]c2c(C(F)(F)F)c(Cl)c(-c3ccccc3)nc2o1`, for which the TGI in assay [1] is 75.3 µM; in assay [2] it was > 100 µM; in assay [3], 60.3 µM; in assay [4] it was 90.9 µM; in assay [5], > 100 µM; in [6] it was 52.7 µM. Further, the TGI in assay [7] was 38.4 µM; in assay [9], 58.2 µM; in assay [10], > 100 µM; in [11], > 100 µM.
For the compound `CC1=C[C@H](C[C@]2(C)c3c(c4c(C)cccc4oc3=O)O[C@@H]2C)OC1=O`, the TGI in assay [2] is > 100 µM; in assay [3], 74.7 µM; in [4], > 100 µM; in [5] it was > 100 µM; in [6] it was > 100 µM; in [7] it was 30.3 µM. For the same compound, the TGI in [8], in assay [9], in assay [10] and in assay [11] was > 100 µM each time.
For the compound `CCCSc1ccc2[nH]c(N3C(=O)/C(=C/c4ccc(O)c(OC)c4)N=C3c3ccccc3)cc2c1`, the TGI is > 100 µM in assay [1]; > 100 µM in assay [2]; 46.4 µM in [3]; > 100 µM in [4]; > 100 µM in assay [5]; 2.73 µM in assay [6]. Further, the TGI in [7] was > 100 µM; in [8], 49 µM; in assay [9], 44.3 µM; in assay [11], > 100 µM.
Turning to `CCOC(=O)c1nc2ccccc2nc1Nc1cc(OC)c(OC)c(OC)c1`, the TGI in assay [2], in assay [3], in assay [4], in assay [5], in assay [6] and in [7] was > 100 µM in each case. The TGI in [8], in assay [9], in [10] and in assay [11] was > 100 µM in each case.
On to `O=C1c2cccnc2S(=O)(=O)N1c1ccc(Br)cc1`, for which the TGI in assay [1], in assay [2], in assay [3], in [4], in assay [5] and in assay [6] was > 100 µM each time. Also, the TGI in assay [7], in [9], in [10] and in assay [11] was > 100 µM each time.
`CN(C)CC1CCC/C(=C\c2ccc(Cl)c(Cl)c2)C1=O` (stereo not given): the TGI in [2] stood at 22.4 µM; in [3] it was 5.01 µM; in assay [4], 5.71 µM; in assay [5], 4.04 µM; in assay [6], 16.8 µM; in assay [7], 3.96 µM. Also, the TGI is 12.5 µM in assay [8], 37.4 µM in [9], 25.8 µM in assay [10] and 18.1 µM in [11].
